The values that follow come from patent US20150238441A1, “Modulation of Branched Amino Acid Concentrations to Treat Metabolic Diseases” (UNIVERSITY OF ROCHESTER, priority 2012, published 2015).

The structures appear in SMILES notation.

One series deals with patients. To be noted: patients taking the drug; cited from earlier work.
The subject of the next series is C57BL/6 mice. Put plainly: Plasma metabolite levels in mice after a single 1 mg/kg oral gavage dose of NTBC (GC/MS and LC/MS/MS). The class given is in vivo. To be noted: single aqueous 1 mg/kg dose by oral gavage, plasma 6 h following dosing, male C57BL/6 mice. On the procedure:
For example, six male C57BL/6 mice (20-25 gm, 8-9 weeks age) were administered a single aqueous 1 mg/kg dose of NTBC by oral gavage. Plasma samples were taken 6 h following dosing. […] We conclude that NTBC can be used to reduce plasma BCAA levels in mice. It should be noted that an early study reported that plasma BCAA levels were unaffected after dosing rats with 10 mg/kg NTBC for 11 weeks (Lock et al., 1996).
The dosing solutions were prepared the day of study dosing, approximately one hour prior to dosing. Compound 1 is nitisinone (also referred to herein as “NTBC”).
54 C56BL/6 mice were housed for at least 3 days prior to dosing and were fully acclimated at study start. All mice were ad libitum fed throughout the study. Water was given ad libitum throughout the holding and study periods. Body weight was measured prior to dosing. Dosing for Group 2 and 3 occurred once on the day of study.
Blood collection (approximately 600 μL) was into pre-chilled (0-4° C.) K3-EDTA containing polypropylene blood collection tubes. After blood collection, blood samples were maintained chilled (2-6° C.) and centrifuged within 30 minutes. […]
Samples were extracted and split into equal parts for analysis on GC/MS and LC/MS/MS platforms. Proprietary software was used to match ions to a library of standards for metabolite identification and for metabolite quantitation by peak area integration.

For the molecule `CN(C)C(=N)N=C(N)N` [metformin], the “patients who suffer gastrointestinal side effects” value with patients is “More than 60%”.

With `O=C1CCCC(=O)C1C(=O)c1ccc(C(F)(F)F)cc1[N+](=O)[O-]` [Compound 1, nitisinone], the “reduction of plasma levels of valine, isoleucine and leucine (BCAAs)” value in the series with C57BL/6 mice was “greater than 25%”.
